Paper PMC2364081, “Antagonists of retinoic acid receptors (RARs) are potent growth inhibitors of prostate carcinoma cells” (British Journal of Cancer, 2001)

Assays:
PC3 ITS+ cells = assay: Plate colony formation assay, serum-free (ITS+)-grown PC3; assay type: cell-based, human; conditions: 14 days
Excerpt: (§1) Prostate cancer is one of the most common cancers in European and American males and has a high mortality rate (Landis et al, 1998; Rosenthal, 1998). Early disease is managed conservatively in Europe although in selected patients surgery is curative. In advanced disease, androgen ablation can produce symptomatic improvement, but the tumour often re-emerges in an androgen- independent and incurable form. One proposed treatment for androgen-independent prostate carcinoma is differentiation ther- apy, in which agents such as all-trans-retinoic acid (ATRA), 9-cis- retinoic acid and 1, 25-dihydroxyvitamin D3 (D3 ) are used to induce growth arrest, differentiation and sometimes apoptosis of the tumour cells (Liang et al, 1999; de Vos et al, 1997; Skowronski et al, 1994; Hedlund et al, 1997). ATRA and synthetic analogues exert their biological effects by binding to two families of retinoid receptors, the RARs (RAR, RAR and RAR) and the RXRs (RXR, RXR and RXR). These are ligand-dependent transcription factors of the steroid/thyroid hormone nuclear receptor superfamily (Chambon 1994; Boehm et al, 1995). Activated RARs bind to retinoic acid-responsive elements (RAREs) in the promoters of genes and thus regulate gene expression. They also antagonize the activity of the tran- scription factor AP1 and thereby down-regulate the expression of some AP1-activated genes (Nagpal et al, 1995). One approach to unravelling the contributions of RAR sub-types to these actions has been the development of synthetic retinoids with selective activities at individual RARs and RXRs. For example, the diaryl- acetylenic retinoids allow separation of transactivation and AP1 antagonism functions at RAR (Nagpal et al, 1995). Recently, compounds that are selective for particular RAR sub-types have been synthesized: these include both agonists and antagonists (Chandraratna, 1995; Teng et al, 1999; Johnson et al, 1999). The functional selectivity of these compounds may open the way to achieving differentiation or apoptosis of tumour cells with minimal systemic side effects (Chandraratna, 1995). […]

[1] = tested on: LNCaP, PC3 and DU145 cells; assay: Plate colony formation assay, stated over the three serum-free grown lines; assay type: cell-based, human
Excerpt: (§2) Prostate cancer is one of the most common cancers in European and American males and has a high mortality rate (Landis et al, 1998; Rosenthal, 1998). Early disease is managed conservatively in Europe although in selected patients surgery is curative. In advanced disease, androgen ablation can produce symptomatic improvement, but the tumour often re-emerges in an androgen- independent and incurable form. One proposed treatment for androgen-independent prostate carcinoma is differentiation ther- apy, in which agents such as all-trans-retinoic acid (ATRA), 9-cis- retinoic acid and 1, 25-dihydroxyvitamin D3 (D3 ) are used to induce growth arrest, differentiation and sometimes apoptosis of the tumour cells (Liang et al, 1999; de Vos et al, 1997; Skowronski et al, 1994; Hedlund et al, 1997). ATRA and synthetic analogues exert their biological effects by binding to two families of retinoid receptors, […]. These are ligand-dependent transcription factors of the steroid/thyroid hormone nuclear receptor superfamily (Chambon 1994; Boehm et al, 1995). Activated RARs bind to retinoic acid-responsive elements (RAREs) in the promoters of genes and thus regulate gene expression. They also antagonize the activity of the tran- scription factor AP1 and thereby down-regulate the expression of some AP1-activated genes (Nagpal et al, 1995). One approach to unravelling the contributions of RAR sub-types to these actions has been the development of synthetic retinoids with selective activities at individual RARs and RXRs. For example, the diaryl- acetylenic retinoids allow separation of transactivation and AP1 antagonism functions at RAR (Nagpal et al, 1995). Recently, compounds that are selective for particular RAR sub-types have been synthesized: these include both agonists and antagonists (Chandraratna, 1995; Teng et al, 1999; Johnson et al, 1999). The functional selectivity of these compounds may open the way to achieving differentiation or apoptosis of tumour cells with minimal systemic side effects (Chandraratna, 1995). Cell lines that are commonly used in the evaluation of investiga- tional agents for prostate cancer include LNCaP, DU-145 and PC- 3. […] These lines are relatively insensitive to growth inhibition and induction of apoptosis by ATRA and by synthetic agonists. […] Fenretinide (4HPR) induces apoptosis of LNCaP and of PC-3 cells at 1-5 M and 25 µM, respectively (Pienta et al, 1993; Heish and Wu, 1997). Pfahl and colleagues examined the growth inhibitory effects of a panel of receptor-selective retinoids against DU145 and PC-3 cells and achieved complete growth inhibition and induction of apoptosis between 1 M and 10 M (Lu et al, 1999). […] Antagonists of retinoic acid receptors (RARs) are potent growth inhibitors of prostate carcinoma cells LA Hammond1 , CH Van Krinks2 , J Durham2 , SE Tomkins2 , RD Burnett3 , EL Jones1 , RAS Chandraratna3 and G Brown2 Divisions of 1 Cancer Studies and of 2 Immunity and Infection, University of Birmingham Medical School, Edgbaston, Birmingham B15 2TT, UK and 3 Retinoid Research, Allergan Inc., Irvine, California, USA Summary Novel synthetic antagonists of retinoic acid receptors (RARs) have been developed. To avoid interference by serum retinoids when testing these compounds, we established serum-free grown sub-lines (>3 years) of the prostate carcinoma lines LNCaP, PC3 and DU145. […] A component(s) of serum and of LNCaP-conditioned medium diminishes the activity of antagonists: this factor is not the most likely candidates IGF-1 and EGF. In vitro studies of RAR antagonists together with data from RAR-null mice lead to the hypothesis that RAR-regulated gene transcription is necessary for the survival and maintenance of prostate epithelium. […]

[2] = tested on: primary prostate carcinoma cells; assay: Growth of primary prostate carcinoma cells (flask cultures, passage 2); assay type: cell-based, human; conditions: 10 and 100 nM, two patients, days 3 and 6
Excerpt: as §1, with “1995).” for “1995). One approach to unravelling the contributions of RAR sub-types to these actions has been the development of synthetic retinoids with selective activities at individual RARs and RXRs. For example, the diaryl- acetylenic retinoids allow separation of transactivation and AP1 antagonism functions at RAR (Nagpal et al, 1995). Recently, compounds that are selective for particular RAR sub-types have been synthesized: these include both agonists and antagonists (Chandraratna, 1995; Teng et al, 1999; Johnson et al, 1999). The functional selectivity of these compounds may open the way to achieving differentiation or apoptosis of tumour cells with minimal systemic side effects (Chandraratna, 1995).”

LNCaP ITS+ cells = assay: Plate colony formation (clonal proliferation) assay, serum-free (ITS+)-grown LNCaP; assay type: cell-based, human
Excerpt: as §2

RARγ = target: T1, RARγ (Homo sapiens, UniProt P13631); assay: Binding to baculovirus-expressed RARγ; parameters: made in house; conditions: baculovirus-expressed receptor
T1 sequence (P13631 1-454): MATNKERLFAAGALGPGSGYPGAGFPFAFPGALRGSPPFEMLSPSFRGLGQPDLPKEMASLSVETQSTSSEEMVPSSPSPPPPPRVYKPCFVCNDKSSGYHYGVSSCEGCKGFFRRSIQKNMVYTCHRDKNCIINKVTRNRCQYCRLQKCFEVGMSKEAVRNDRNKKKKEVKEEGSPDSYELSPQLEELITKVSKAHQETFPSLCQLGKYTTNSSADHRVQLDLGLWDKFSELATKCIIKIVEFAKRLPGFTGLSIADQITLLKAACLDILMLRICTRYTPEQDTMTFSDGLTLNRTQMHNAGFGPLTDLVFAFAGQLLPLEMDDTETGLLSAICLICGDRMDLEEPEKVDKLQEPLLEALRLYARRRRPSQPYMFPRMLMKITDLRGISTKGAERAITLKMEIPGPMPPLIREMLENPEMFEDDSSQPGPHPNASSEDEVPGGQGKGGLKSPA
Excerpt: as §2

CCc1ccc(C2=CC(C)(C)Sc3ccc(C#Cc4ccc(C(=O)O)cc4)cc32)cc1 [AGN194310]
IC50 (PC3 ITS+ cells): 0.018 µM | colony formation (% of control) ([1]; 100 nM, ITS+-grown cells, all three cell lines): 3-7% | fold more potent than ATRA ([1]; against cell lines, serum-free): 12–22 fold | IC50 ([1]; stated over all three serum-free grown lines, read-out: concentration inhibiting colony formation by 50% (IC50)): 0.016 to 0.034 µM | cell growth of primary lines [2]: substan- tial growth inhibition | growth inhibitory effect in combination with TTNPB (LNCaP ITS+ cells; 50 nM AGN194310 together with 100 nM TTNPB): almost complete reversal | colony formation (% of control values) (LNCaP ITS+ cells; 50 nM alone (Figure 3)): 41% | colony formation (% of control values) (LNCaP ITS+ cells; 100 nM AGN194310 together with 100 nM TTNPB): 40% | colony formation (% of control values) (LNCaP ITS+ cells; 100 nM alone (Figure 3)): 14% | colony formation (% of control) (LNCaP ITS+ cells; 100 nM, ITS+ cells plated in ITS+ medium (Figure 5A)): < 1% | growth inhibitory activity in LNCaP-conditioned medium (LNCaP ITS+ cells; 100 nM, LNCaP ITS+ cells plated in LNCaP-conditioned medium): abrogated | inhibition of colony formation (LNCaP ITS+ cells; 100 nM, with EGF at 1, 10 and 20 ng/ml): > 95% | IC50 (LNCaP ITS+ cells; LNCaP, serum-free (ITS+), 14 days): 0.016 µM | concentration required to attain maximum growth inhibition (LNCaP ITS+ cells; colony assay): 100 nM | Kd (RARγ): 0.005 µM
